Reference: patent publication US20260200947A1, “FUSED CYCLIC COMPOUNDS AND USE THEREOF” (Jacobio Pharmaceuticals Co., Ltd., priority 2022, published 2026)

Tested on: SW620 cells (K-Ras G12V)
Experiment: Phospho-ERK1/2(THR202/TYR204) HTRF assay, SW620
Assay type: cell-based
Conditions: Homo sapiens, SW-620, 2 hours incubation, read-out: pERK, IC50, SW620
Procedure: Each of cells in culture medium was seeded in 96-well plates at density indicated in Table 4 and put in a cell incubator to incubate overnight. The next day, the culture medium was removed and the compound diluted in assay medium was added in each well. […] 10 μL of cell lysates from the 96-well plates were transferred to a 384-well plate (Greiner) containing 2.5 μL/well HTRF® pre-mixed antibodies (Cisbio 64AERPEH). The plate was incubated 4 hours at 25° C. and read HTRF signals on Tecan Spark multimode microplate reader. The data were analyzed using a 4-parameter logistic model to calculate IC50 values.

Row | Structure (SMILES) | IC50 [nM]
1 | C#Cc1c(F)ccc2cc(N)cc(-c3nc4c5c(nc(OC[C@@]67CCCN6C[C@H](F)C7)nc5c3F)N3CCCOC[C@H]3CO4)c12 [Compound 1] | 4.43

Tested on: AsPC-1 cells (K-Ras G12D)
Experiment: not given
Conditions: not given

Row | Structure (SMILES) | IC50 [nM]
2 | C#Cc1c(F)ccc2cc(N)cc(-c3nc4c5c(nc(OC[C@@]67CCCN6C[C@H](F)C7)nc5c3F)N3[C@@H](C)[C@@H](F)COC[C@H]3N4C)c12 [Compound 57] | 10
3 | C#Cc1c(F)ccc2cc(N)cc(-c3nc4c5c(nc(OC[C@@]67CCCN6C[C@H](F)C7)nc5c3F)N3CCCOC[C@H]3CO4)c12 [Compound 1] | 102
4 | C#Cc1c(F)ccc2cc(N)cc(-c3nc4c5c(nc(OC[C@@]67CCCN6C[C@H](F)C7)nc5c3F)N3[C@H]5C[C@H]5COC[C@H]3N4C)c12 [Compound 159B] | 307
5 | C#Cc1c(F)ccc2cc(N)cc(-c3nc4c5c(nc(OC[C@@]67CCCN6C[C@H](F)C7)nc5c3F)N3[C@@H](C)[C@H](F)COC[C@H]3N4C)c12 [Compound 58] | 21.6
6 | C#Cc1c(F)ccc2cc(N)cc(-c3nc4c5c(nc(OC[C@@]67CCCN6C[C@H](F)C7)nc5c3F)N3[C@@H](COC)CCOC[C@H]3N4C)c12 [Compound 59A] | 61.8

Target: GppNp-KRAS G12D (Homo sapiens, UniProt P01116, G12D)
Experiment: GTP-K-Ras and cRAF interaction assay, GppNp-KRAS G12D
Conditions: read-out: Biochemical assays, IC50, KRAS G12D GppNp; GppNp-loaded K-Ras G12D, cRAF RBD interaction, HTRF

Sequence of GppNp-KRAS G12D (P01116 1-169 isoform P01116-2 G12D): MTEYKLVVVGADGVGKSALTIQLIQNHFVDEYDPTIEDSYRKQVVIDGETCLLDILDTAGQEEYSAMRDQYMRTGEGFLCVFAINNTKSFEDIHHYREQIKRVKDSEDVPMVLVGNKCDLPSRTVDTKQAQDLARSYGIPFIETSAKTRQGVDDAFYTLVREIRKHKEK

Row | Structure (SMILES) | IC50 [nM]
7 | C#Cc1c(F)ccc2cc(N)cc(-c3nc4c5c(nc(OC[C@@]67CCCN6C[C@H](F)C7)nc5c3F)N3CCCCC[C@@H]3CO4)c12 [Compound 27A] | > 1000
8 | C#Cc1c(F)ccc2cc(N)cc(-c3nc4c5c(nc(OC[C@@]67CCCN6C[C@H](F)C7)nc5c3F)N3CCCC[C@@H](Cl)[C@@H]3N4C)c12 [Compound 62A] | > 1000
9 | C#Cc1c(F)ccc2cc(N)cc(-c3nc4c5c(nc(OC[C@@]67CCCN6C[C@H](F)C7)nc5c3F)N3CC(F)(F)CCC[C@@H]3N4C)c12 [Compound 106A] | > 1000
10 | C#Cc1c(F)ccc2cc(N)cc(-c3nc4c5c(nc(OCC67CCCN6CC(F)C7)nc5c3F)N3C(C#N)CCCCC3N4C)c12 (centres unmarked) [Compound 168B] | > 1000
11 | C#Cc1c(F)ccc2cc(N)cc(-c3nc4c5c(nc(OCC67CCCN6CC(F)C7)nc5c3F)N3CCCCC(F)C3N4C)c12 (centres unmarked) [Compound 40B] | 162

Target: GDP-KRAS G12V (Homo sapiens, UniProt P01116, G12V)
Experiment: SOS1 catalyzed nucleotide exchange assay, GDP-KRAS G12V
Conditions: read-out: Biochemical assays, IC50, KRAS G12V GDP, GDP form K-Ras G12V, TR-FRET

Sequence of GDP-KRAS G12V (P01116 1-169 isoform P01116-2 G12V): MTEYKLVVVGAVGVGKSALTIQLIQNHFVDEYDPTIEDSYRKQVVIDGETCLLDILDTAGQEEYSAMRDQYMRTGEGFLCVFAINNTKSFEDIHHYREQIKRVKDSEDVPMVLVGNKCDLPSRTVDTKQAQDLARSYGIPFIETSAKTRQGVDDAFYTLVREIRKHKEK

Row | Structure (SMILES) | IC50 [nM]
12 | N#Cc1c(N)sc2c(F)ccc(-c3c(Cl)c4c5c(nc(OCC67CCCN6CC(F)C7)nc5c3F)N3CCCOCC3CO4)c12 (single isomer, unassigned) [Compound 66A] | 331
13 | C#Cc1c(F)ccc2cc(N)cc(-c3nc4c5c(nc(OC[C@@]67CCCN6C[C@H](F)C7)nc5c3F)N3CCCCC[C@@H]3CO4)c12 [Compound 27A] | 65.1
14 | C#Cc1c(F)ccc2cc(N)cc(-c3nc4c5c(nc(OC[C@@]67CCCN6C[C@H](F)C7)nc5c3F)N3CCCC[C@@H](Cl)[C@@H]3N4C)c12 [Compound 62A] | 389
15 | C#Cc1c(F)ccc2cc(N)cc(-c3nc4c5c(nc(OC[C@@]67CCCN6C[C@H](F)C7)nc5c3F)N3CC(F)(F)CCC[C@@H]3N4C)c12 [Compound 106A] | 226
16 | C#Cc1c(F)ccc2cc(N)cc(-c3nc4c5c(nc(OCC67CCCN6CC(F)C7)nc5c3F)N3C(C#N)CCCCC3N4C)c12 (centres unmarked) [Compound 168B] | 631
17 | C#Cc1c(F)ccc2cc(N)cc(-c3nc4c5c(nc(OCC67CCCN6CC(F)C7)nc5c3F)N3CCCCC(F)C3N4C)c12 (centres unmarked) [Compound 40B] | 7.01

Tested on: not listed separately
Experiment: Mouse pharmacokinetic study
Assay type: in vivo
Conditions: Balb/c mouse (female), 3 mg/kg, iv, plasma
Procedure: The purpose of this study was to evaluate the pharmacokinetic properties of compounds in Balb/c mouse (female) following single dose administration. Six mice were needed for each compound and the six mice were divided into two groups (n=3/group), group A and group B. Mice in group A were treated with a single 3 mg/kg dose of compound (iv). Mice in group B were treated with a single 10 mg/kg dose of compound (po). Foreach mouse in group A, blood samples were collected at the time point of 0.083 h 0.5 h, 1 h, 2 h, 4 h, 8 h and 24 h post-dose. For each mouse in group B, blood samples were collected at the time point of 0.25 h, 0.5 h, 1 h, 2 h, 4 h, 8 h and 24 h post-dose. Blood samples were placed on ice until centrifugation to obtain plasma samples. The plasma samples were stored at −80° C. until analysis. The concentration of compound in plasma samples was determined using a LC-MS/MS method.

Row | Structure (SMILES) | Cl_obs [mL/min/kg]
18 | C#Cc1c(F)ccc2cc(N)cc(-c3nc4c5c(nc(OC[C@@]67CCCN6C[C@H](F)C7)nc5c3F)N3CCCOC[C@H]3CO4)c12 [Compound 1] | 6.33

Same assay, conditions: Balb/c mouse (female), 3 mg/kg, iv, plasma; read-out: AUC0-24 h

Row | Structure (SMILES) | AUC(0-t) [ng·h/mL]
19 | C#Cc1c(F)ccc2cc(N)cc(-c3nc4c5c(nc(OC[C@@]67CCCN6C[C@H](F)C7)nc5c3F)N3CCCOC[C@H]3CO4)c12 [Compound 1] | 7990

Same assay, conditions: Balb/c mouse (female), 10 mg/kg po vs 3 mg/kg iv

Row | Structure (SMILES) | F [%]
20 | C#Cc1c(F)ccc2cc(N)cc(-c3nc4c5c(nc(OC[C@@]67CCCN6C[C@H](F)C7)nc5c3F)N3CCCOC[C@H]3CO4)c12 [Compound 1] | 17.2

Same assay, conditions: Balb/c mouse (female), 10 mg/kg, po, plasma; read-out: AUC0-24 h

Row | Structure (SMILES) | AUC(0-t) [ng·h/mL]
21 | C#Cc1c(F)ccc2cc(N)cc(-c3nc4c5c(nc(OC[C@@]67CCCN6C[C@H](F)C7)nc5c3F)N3CCCOC[C@H]3CO4)c12 [Compound 1] | 4590

Same assay, conditions: Balb/c mouse (female), 10 mg/kg, po, plasma; read-out: Cmax

Row | Structure (SMILES) | Cmax [ng/mL]
22 | C#Cc1c(F)ccc2cc(N)cc(-c3nc4c5c(nc(OC[C@@]67CCCN6C[C@H](F)C7)nc5c3F)N3CCCOC[C@H]3CO4)c12 [Compound 1] | 1140

Target: GppNp-KRAS G12V (Homo sapiens, UniProt P01116, G12V)
Experiment: GTP-K-Ras and cRAF interaction assay, GppNp-KRAS G12V
Conditions: read-out: Biochemical assays, IC50, KRAS G12V GppNp; GppNp-loaded K-Ras G12V, cRAF RBD interaction, HTRF

Sequence of GppNp-KRAS G12V (P01116 1-169 isoform P01116-2 G12V): as above

Row | Structure (SMILES) | IC50 [nM]
23 | C#Cc1c(F)ccc2cc(N)cc(-c3nc4c5c(nc(OC[C@@]67CCCN6C[C@H](F)C7)nc5c3F)N3CCCCC[C@@H]3CO4)c12 [Compound 27A] | > 1000
24 | C#Cc1c(F)ccc2cc(N)cc(-c3nc4c5c(nc(OC[C@@]67CCCN6C[C@H](F)C7)nc5c3F)N3CCCC[C@@H](Cl)[C@@H]3N4C)c12 [Compound 62A] | > 1000
25 | C#Cc1c(F)ccc2cc(N)cc(-c3nc4c5c(nc(OC[C@@]67CCCN6C[C@H](F)C7)nc5c3F)N3CC(F)(F)CCC[C@@H]3N4C)c12 [Compound 106A] | > 1000
26 | C#Cc1c(F)ccc2cc(N)cc(-c3nc4c5c(nc(OCC67CCCN6CC(F)C7)nc5c3F)N3C(C#N)CCCCC3N4C)c12 (centres unmarked) [Compound 168B] | > 1000
27 | C#Cc1c(F)ccc2cc(N)cc(-c3nc4c5c(nc(OCC67CCCN6CC(F)C7)nc5c3F)N3CCCCC(F)C3N4C)c12 (centres unmarked) [Compound 40B] | 705

Tested on: Capan-2 cells (K-Ras G12V)
Experiment: not given
Conditions: not given

Row | Structure (SMILES) | IC50 [nM]
28 | C#Cc1c(F)ccc2cc(N)cc(-c3nc4c5c(nc(OC[C@]67CC(=C)CN6C[C@@H](F)C7)nc5c3F)N3CCCOC[C@H]3N4C)c12 [Compound 171] | 2.54
29 | C#Cc1c(F)ccc2cc(N)cc(-c3nc4c5c(nc(OC[C@@]67CCCN6C[C@H](F)C7)nc5c3F)N3[C@@H](C)[C@@H](F)COC[C@H]3N4C)c12 [Compound 57] | 0.453
30 | C#Cc1c(F)ccc2cc(N)cc(-c3nc4c5c(nc(OC[C@@]67CCCN6C[C@H](F)C7)nc5c3F)N3CCCOC[C@H]3CO4)c12 [Compound 1] | 6.25
31 | C#Cc1c(F)ccc2cc(N)cc(-c3nc4c5c(nc(OC[C@@]67CCCN6C[C@H](F)C7)nc5c3F)N3[C@H]5C[C@H]5COC[C@H]3N4C)c12 [Compound 159B] | 5.4
32 | C#Cc1c(F)ccc2cc(N)cc(-c3nc4c5c(nc(OC[C@@]67CCCN6C[C@H](F)C7)nc5c3F)N3[C@@H](C)[C@H](F)COC[C@H]3N4C)c12 [Compound 58] | 0.404
33 | C#Cc1c(F)ccc2cc(N)cc(-c3nc4c5c(nc(OC[C@@]67CCCN6C[C@H](F)C7)nc5c3F)N3[C@@H](COC)CCOC[C@H]3N4C)c12 [Compound 59A] | 0.316

Target: GDP-KRAS G12D (Homo sapiens, UniProt P01116, G12D)
Experiment: SOS1 catalyzed nucleotide exchange assay, GDP-KRAS G12D
Conditions: read-out: Biochemical assays, IC50, KRAS G12D GDP, GDP form K-Ras G12D, TR-FRET

Sequence of GDP-KRAS G12D (P01116 1-169 isoform P01116-2 G12D): as the sequence (P01116 1-169 isoform P01116-2 G12D) above

Row | Structure (SMILES) | IC50 [nM]
34 | N#Cc1c(N)sc2c(F)ccc(-c3c(Cl)c4c5c(nc(OCC67CCCN6CC(F)C7)nc5c3F)N3CCCOCC3CO4)c12 (single isomer, unassigned) [Compound 66A] | 169
35 | C#Cc1c(F)ccc2cc(N)cc(-c3nc4c5c(nc(OC[C@@]67CCCN6C[C@H](F)C7)nc5c3F)N3CCCCC[C@@H]3CO4)c12 [Compound 27A] | 47.8
36 | C#Cc1c(F)ccc2cc(N)cc(-c3nc4c5c(nc(OC[C@@]67CCCN6C[C@H](F)C7)nc5c3F)N3CCCC[C@@H](Cl)[C@@H]3N4C)c12 [Compound 62A] | 703
37 | C#Cc1c(F)ccc2cc(N)cc(-c3nc4c5c(nc(OC[C@@]67CCCN6C[C@H](F)C7)nc5c3F)N3CC(F)(F)CCC[C@@H]3N4C)c12 [Compound 106A] | 630
38 | C#Cc1c(F)ccc2cc(N)cc(-c3nc4c5c(nc(OCC67CCCN6CC(F)C7)nc5c3F)N3C(C#N)CCCCC3N4C)c12 (centres unmarked) [Compound 168B] | 503
39 | C#Cc1c(F)ccc2cc(N)cc(-c3nc4c5c(nc(OCC67CCCN6CC(F)C7)nc5c3F)N3CCCCC(F)C3N4C)c12 (centres unmarked) [Compound 40B] | 1.55

Tested on: SW620 cells (K-Ras G12V)
Experiment: not given
Conditions: not given

Row | Structure (SMILES) | IC50 [nM]
40 | C#Cc1c(F)ccc2cc(N)cc(-c3nc4c5c(nc(OC[C@]67CC(=C)CN6C[C@@H](F)C7)nc5c3F)N3CCCOC[C@H]3N4C)c12 [Compound 171] | 43.7
41 | C#Cc1c(F)ccc2cc(N)cc(-c3nc4c5c(nc(OC[C@@]67CCCN6C[C@H](F)C7)nc5c3F)N3[C@@H](C)[C@@H](F)COC[C@H]3N4C)c12 [Compound 57] | 3.22
42 | C#Cc1c(F)ccc2cc(N)cc(-c3nc4c5c(nc(OC[C@@]67CCCN6C[C@H](F)C7)nc5c3F)N3CCCOC[C@H]3CO4)c12 [Compound 1] | 9.37
43 | C#Cc1c(F)ccc2cc(N)cc(-c3nc4c5c(nc(OC[C@@]67CCCN6C[C@H](F)C7)nc5c3F)N3[C@@H](C)[C@H](F)COC[C@H]3N4C)c12 [Compound 58] | 1.2
44 | C#Cc1c(F)ccc2cc(N)cc(-c3nc4c5c(nc(OC[C@@]67CCCN6C[C@H](F)C7)nc5c3F)N3[C@@H](COC)CCOC[C@H]3N4C)c12 [Compound 59A] | 13.3
